Experiments:
S. aureus DSM 20231 [1] = assay: Bliss interaction score (quartile over a dose matrix) (fitness difference); higher = more antagonism (negative = synergy)
Method in brief: (§1)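 Growth was read as OD595 when cultures entered stationary phase, and each value was divided by the plate's robust no-drug mean and capped at 1. This normalised ratio is the fitness value, and fitness for each single drug came from the combination data. The Bliss score subtracts the expected fitness, taken as the product, from the observed fitness and is given as quartiles across technical, biological and donor/recipient replicates.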

B. subtilis 168 [2] = assay: as above
Method in brief: as §1

S. aureus Newman [3] = assay: as above
Method in brief: as §1

S. pneumoniae D39V [4] = assay: as above
Method in brief: as §1

S. aureus DSM 20231 [5] = assay: fitness (endpoint OD595 vs no drug) (fraction); higher = more growth
Method in brief: (§2)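 At 37 °C, bacteria in TSB, LB Lennox or CY were grown in 384-well plates from a starting OD595 of 0.01. OD595 was measured every 30 min for 14 h, with the first reading used as background. Fitness is the optical density at the switch to stationary phase as a fraction of the robust mean of no-drug control wells, capped at 1.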

S. pneumoniae D39V [6] = assay: as above
Method in brief: as §2

B. subtilis 168 [7] = assay: as above
Method in brief: as §2

S. aureus Newman [8] = assay: as above
Method in brief: as §2
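Throughout, for Bliss interaction score (quartile over a dose matrix): first quartile when negative (synergy) and third quartile when positive (antagonism).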
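Throughout, for fitness (endpoint OD595 vs no drug): OD595 on entry to stationary phase over no-drug wells; at most 1.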

CCC[C@@H]1C[C@@H](C(=O)N[C@@H]([C@H]2O[C@H](SC)[C@H](O)[C@@H](O)[C@H]2O)[C@@H](C)O)N(C)C1 [Lincomycin] + Cn1nnc(-c2ccc(-c3ccc(N4C[C@H](CO)OC4=O)cc3F)cn2)n1 [Tedizolid]
Conditions	Bliss interaction score
B. subtilis 168 [2]	0.0845
S. aureus DSM 20231 [1]	-0.114
S. aureus Newman [3]	-0.129
S. pneumoniae D39V [4]	0.138

fitness
Conditions	partner 0.03125 µg/mL	partner 0.0625 µg/mL	partner 0.125 µg/mL	partner 0.25 µg/mL	partner 0.5 µg/mL
S. aureus DSM 20231 [5], first compound 0.1 µg/mL	–	0.806	0.683	0.364	–
S. aureus DSM 20231 [5], first compound 0.2 µg/mL	–	0.568	0.434	0.229	–
S. aureus DSM 20231 [5], first compound 0.4 µg/mL	–	0.27	0.182	0.115	–
S. pneumoniae D39V [6], first compound 0.2 µg/mL	0.732	0.796	0.665	–	–
S. pneumoniae D39V [6], first compound 0.215 µg/mL	–	–	0.754	0.731	0.345
S. pneumoniae D39V [6], first compound 0.4 µg/mL	0.647	0.716	0.611	–	–
S. pneumoniae D39V [6], first compound 0.43 µg/mL	–	–	0.661	0.629	0.277
S. pneumoniae D39V [6], first compound 0.8 µg/mL	0.549	0.67	0.57	–	–
S. pneumoniae D39V [6], first compound 0.86 µg/mL	–	–	0.209	0.162	0.0655

COc1c(N2C[C@@H]3CCCN[C@@H]3C2)c(F)cc2c(=O)c(C(=O)O)cn(C3CC3)c12 [Moxifloxacin] + CN(C)c1cc(NC(=O)CNC(C)(C)C)c(O)c2c1C[C@H]1C[C@H]3[C@H](N(C)C)C(O)=C(C(N)=O)C(=O)[C@@]3(O)C(O)=C1C2=O [Tigecycline]
Conditions	Bliss interaction score
B. subtilis 168 [2]	-0.0275
S. aureus DSM 20231 [1]	-0.0652
S. aureus Newman [3]	-0.0557
S. pneumoniae D39V [4]	0.0824

fitness
Conditions	partner 0.039 µg/mL	partner 0.078 µg/mL	partner 0.156 µg/mL	partner 0.65 µg/mL	partner 1.3 µg/mL	partner 2.6 µg/mL
B. subtilis 168 [7], first compound 0.0312 µg/mL	0.0412	0.0391	0.0455	–	–	–
B. subtilis 168 [7], first compound 0.0625 µg/mL	0.0348	0.0627	0.0465	–	–	–
B. subtilis 168 [7], first compound 0.125 µg/mL	0.0497	0.0447	0.0454	–	–	–
B. subtilis 168 [7], first compound 2 µg/mL	0.0218	0.034	0.0374	–	–	–
B. subtilis 168 [7], first compound 4 µg/mL	0.0264	0.0295	0.0361	–	–	–
B. subtilis 168 [7], first compound 8 µg/mL	0.008	0.0149	0.0156	–	–	–
S. aureus Newman [8], first compound 0.0075 µg/mL	0.764	0.761	0.773	–	–	–
S. aureus Newman [8], first compound 0.03 µg/mL	0.0791	0.0794	0.113	–	–	–
S. pneumoniae D39V [6], first compound 0.0037 µg/mL	–	–	–	0.945	0.955	0.852
S. pneumoniae D39V [6], first compound 0.005 µg/mL	–	–	–	0.931	0.929	0.909
S. pneumoniae D39V [6], first compound 0.0075 µg/mL	–	–	–	0.937	0.94	0.905
S. pneumoniae D39V [6], first compound 0.01 µg/mL	–	–	–	0.965	0.946	0.932
S. pneumoniae D39V [6], first compound 0.015 µg/mL	–	–	–	0.932	0.929	0.901
S. pneumoniae D39V [6], first compound 0.02 µg/mL	–	–	–	0.835	0.94	0.971

fitness, B. subtilis 168 [7], one replicate
Conditions	first compound 0.0312 µg/mL	first compound 0.0625 µg/mL	first compound 0.125 µg/mL
partner 0.125 µg/mL	0.402	0.0347	0.0119
partner 0.25 µg/mL	0.325	0.0048	0.0005
partner 0.5 µg/mL	0.372	0.0104	0.0203

COc1c(N2C[C@@H]3CCCN[C@@H]3C2)c(F)cc2c(=O)c(C(=O)O)cn(C3CC3)c12 [Moxifloxacin] + CN[C@@H]1[C@H](O[C@H]2[C@H](O[C@H]3[C@H](O)[C@@H](O)[C@H](N=C(N)N)[C@@H](O)[C@@H]3N=C(N)N)O[C@@H](C)[C@]2(O)C=O)O[C@@H](CO)[C@H](O)[C@H]1O [Streptomycin]
Conditions	Bliss interaction score
B. subtilis 168 [2]	0.0188
S. aureus DSM 20231 [1]	0.0517
S. aureus Newman [3]	-0.031
S. pneumoniae D39V [4]	0.0604

fitness
Conditions	partner 1 µg/mL	partner 2 µg/mL	partner 4 µg/mL	partner 8 µg/mL
B. subtilis 168 [7], first compound 0.0312 µg/mL	–	0.0439	0.0414	0.0382
B. subtilis 168 [7], first compound 0.0625 µg/mL	–	0.0428	0.0341	0.0226
B. subtilis 168 [7], first compound 0.125 µg/mL	–	0.041	0.0379	0.0381
B. subtilis 168 [7], first compound 2 µg/mL	–	0.0315	0.0296	0.0146
B. subtilis 168 [7], first compound 4 µg/mL	–	0.0231	0.0178	0.0188
B. subtilis 168 [7], first compound 8 µg/mL	–	0.013	0.0133	0.0206
S. aureus Newman [8], first compound 0.0075 µg/mL	0.834	0.733	–	–
S. aureus Newman [8], first compound 0.015 µg/mL	–	0.606	–	–
S. aureus Newman [8], first compound 0.03 µg/mL	–	0.201	0.0711	–
S. pneumoniae D39V [6], first compound 0.0037 µg/mL	–	–	0.891	0.785
S. pneumoniae D39V [6], first compound 0.005 µg/mL	–	0.922	0.944	0.892
S. pneumoniae D39V [6], first compound 0.0075 µg/mL	–	–	0.904	0.837
S. pneumoniae D39V [6], first compound 0.01 µg/mL	–	0.94	0.958	0.925
S. pneumoniae D39V [6], first compound 0.015 µg/mL	–	–	0.882	0.82
S. pneumoniae D39V [6], first compound 0.02 µg/mL	–	0.881	0.9	0.861

fitness, S. pneumoniae D39V [6], one replicate
Conditions	first compound 0.0037 µg/mL	first compound 0.0075 µg/mL	first compound 0.015 µg/mL
partner 2 µg/mL	0.903	0.908	0.919
partner 16 µg/mL	0.699	0.743	0.685
